According to patent US20230172944A1, “ROCK INHIBITORS FOR USE IN TREATING OR PREVENTING PULMONARY EDEMA” (ATRIVA THERAPEUTICS GMBH, priority 2020, published 2023):

Columns and labels:
[1] = test system: Calu3 cells infected with influenza virus A/Puerto Rico/8/34 (H1N1); experiment: Antibody staining and confocal laser-scanning microscopy of apical NKA localization; type: cell-based, human; conditions: PR8-infected Calu3 cells treated with ROCK inhibitor, 20 h p.i.
Protocol: In order to obtain highly polarized Calu3 cells, the cell monolayer in a 175 cm^2 tissue culture flask grown to 50% confluence was washed once with PBS −/− and treated with Trypsin-EDTA. Cells were resuspended in 10 ml culture medium and centrifuged for 15 min at 300×g, 24° C. Supernatant was discarded and cells were resuspended in 5 ml of culture medium. 30 μl of cell suspension were mixed with 30 μl of 0.4% trypan blue dye and cell concentration was calculated in Neubauer chamber according manufacturer's instruction. Cells were dilute to a concentration of 2×10^6 viable cells/ml in Calu3 culture medium and 250 μl/125 μl of the cell suspension containing 0.5×10^6/0.25×10^6 viable cells were placed to the apical compartment of each Transwells® insert in a 12/24 well plate. 1/0.3 ml of Calu-3 culture medium was added into the basolateral compartments, avoiding the introduction of air bubbles and cells were cultivated at 37° C., 5% CO2. For the cells grown under the Liquid-Liquid Interface (LLI) condition, medium was replaced in both compartments each second day. For Air-Liquid Interface (ALI), culture medium was aspirated from the apical compartment on the day two, whereas medium was replaced every 2 days in the basolateral compartments.
For immunofluorescence assay cells were washed ones with PBS+/+ and fixed with or without extra permeabilization at the indicated time points. […]

[2] = test system: polarized Calu3 cells infected with influenza virus A/Puerto Rico/8/34 (H1N1); experiment: Vectorial water transport (FITC-dextran) over polarized Calu3 cells; type: cell-based, human
[3] = test system: Calu3 cells infected with influenza virus A/Puerto Rico/8/34; experiment: Coomassie staining of confluent polarized Calu3 cells (virus-induced epithelial cell damage); type: cell-based; conditions: 5 μM, MOI=5, Coomassie 24 h p.i.
[4] = test system: IAV A/Puerto Rico/8/32 (H1N1); experiment: Body weight of infected mice; type: in vivo, C57BL/6 mice; conditions: 10 mg/kg 1×daily in saline solution, 500 PFU/mouse, 7 days
Protocol: PR8: Body weight of mice infected with IAV A/Puerto Rico/8/32 (H1N1, 500 PFU/mouse). […] The experiment was planned for 7 days only. Afterwards the mice were euthanized for ethical reasons.
All animal experiments were performed according to the latest guidelines of the “Federation of European Laboratory Animal Science Associations (FELASA)” and approved by the local committee of the Max-Planck Laboratory for Heart & Lung Research Instituto de Investigación en Biomedicina de Buenos Aires (IBioBA). Six-week-old BALB/c mice (n=5 per group) were infected by intra-tracheal inoculation of 500 plaque-forming units (pfu)/mouse of PR8 in a volume of 30 μl. […] As a control IP injection of sterile PBS −/− were applied. Body weight was monitored every day until day 8 p.i.. On the day 7 after treatment start (=day 8 p.i.) mice were sacrificed by an overdose of isoflurane.

[5] = test system: IAV A/Puerto Rico/8/32 (H1N1); experiment: Lung histology (Hematoxilin/Eosin) and nuclear count quantification of infiltrates; type: in vivo; conditions: 10 mg/kg 1×daily for 6 days, 5 mice, 7th day p.i., Aperio nuclear count
[6] = test system: IAV A/Puerto Rico/8/32 (H1N1); experiment: Virus titer of lung homogenizates (foci assay); type: in vivo, mice; conditions: 10 mg/kg 1×daily for 6 days, 500 PFU/mouse, 7th day p.i., n=3
Protocol: PR8: Virus titer of lung homogenizates from mice infected with IAV A/Puerto Rico/8/32 (H1N1, 500 PFU/Mouse) were infected (7th day p.i.).
For the foci forming assay, MDCK II cells were seeded in 96-well plates at a concentration of 3×10^6 cells/plate. The next day, 10-fold dilutions in duplicates (from 10^−1 to 10^−8) in PBS+/+/BA/PS was prepared from each virus sample in U-shaped 96-well. Importantly, during the preparation of the dilutions the pipet tips were changed after each dilution step. The MDCK II cells in the 96-well plate(s) were washed once with PBS+/+. […] 1 hour later, cells again were washed with 400 μl of washing buffer and 40 μl 3-Amino-9-ethylcarbazole (AEC)-staining buffer (1×AEC diluted N—N-dimethylformamide in acetate buffer (50 mM ammonium acetate, 8.8 mM H202) were added to each well. Following incubation for 30 min at 37° C. until foci could be detected, the staining buffer was removed and cells were washed twice with dH2O. Air-dried plates were scanned by using the Epson Perfection V500 Photo scan (Epson) at 1200 dpi and total number of foci was determined per well. Since Avicel-medium has a high viscosity that prevents diffusion of virus particles in surrounding media, virus can spread only from one cell to other forming foci. […]

Compound | apical sodium-potassium-ATPase (NKA) localization [1] | vectorial water transport (VWT) [2] | virus-induced epithelial cell damage (cytopathic effect) [3] | cell viability of infected Calu3 cells (Calu3 cells) | cell viability of non-infected Calu3 cells (Calu3 cells; 5 μM, 0, 6, 16, 24 hours, mock set to 100%) | body weight loss of infected mice [4] | number of infiltrates (quantification, total cell count/mm2) [5] | virus titer in the lungs of infected mice [6]
O=C(NCc1cccc(O)c1)Nc1nc(-c2ccncc2)cs1 [Rho XIII, 1-(3-Hydroxybenzyl)-3-(4-(pyridin-4-yl)thiazol-2-yl)urea] | prevents apical sodium-potassium-ATPase (NKA) localization | improves vectorial water transport | reduces virus-induced epithelial cell damage in vitro | increases cell viability | increases cell viability | – | – | –
Cl.O=S(=O)(c1cccc2cnccc12)N1CCCNCC1 [Fasudil HCl, Isoquinoline 5-[(hexahydro-1H-1,4-diazepin-1-yl)sulfonyl]-N-(5-Isoquinolinesulfonyl)-1,4-per-hydrodiazepine] | – | – | – | – | – | tendential reduction of the body weight loss | reduces the number of infiltrates | reduces the virus titer in the lungs of infected mice
